# In ChEMBL document CHEMBL3779879, “Structural hybridization of three aminoglycoside antibiotics yields a potent broad-spectrum bactericide that eludes bacterial resistance enzymes” (2016):
# Legend:
# Type in all cases: functional
# Escherichia coli [1] = assay: Antibacterial activity against Escherichia coli expressing AAC(3)-IV
# Escherichia coli [2] = assay: Antibacterial activity against Escherichia coli expressing A-site methyltransferase ArmA
# Escherichia coli [3] = assay: Antibacterial activity against Escherichia coli ATCC 25922
# Staphylococcus aureus [4] = assay: Antibacterial activity against Staphylococcus aureus ATCC 29213
# Klebsiella pneumoniae = assay: Antibacterial activity against Klebsiella pneumoniae ATCC 10031
# Acinetobacter baumannii [5] = assay: Antibacterial activity against Acinetobacter baumannii
# Pseudomonas aeruginosa [6] = assay: Antibacterial activity against Pseudomonas aeruginosa ATCC 27853 expressing APH(3')-IIa
# Enterobacter cloacae = assay: Antibacterial activity against Enterobacter cloacae expressing APH(3')-I, ANT(2'')-I, AAC(6')
# Escherichia coli [7] = assay: Antibacterial activity against Escherichia coli expressing APH(3')-Ib
# Staphylococcus aureus [8] = assay: Antibacterial activity against Staphylococcus aureus expressing APH(3'/5'')-III
# Acinetobacter baumannii [9] = assay: Antibacterial activity against Acinetobacter baumannii expressing AAC(3)-I, APH(3')-VI, ANT(2'')-I
# Staphylococcus aureus [10] = assay: Antibacterial activity against Staphylococcus aureus expressing ANT(4')-I
# Pseudomonas aeruginosa [11] = assay: Antibacterial activity against Pseudomonas aeruginosa expressing ANT(4')-II
# Escherichia coli [12] = assay: Antibacterial activity against Escherichia coli expressing ANT(2'')-I
# Pseudomonas aeruginosa [13] = assay: Antibacterial activity against Pseudomonas aeruginosa expressing AAC(6')-II
# Staphylococcus aureus [14] = assay: Antibacterial activity against Staphylococcus aureus expressing AAC(6')/APH(2'')
SMILES,MIC (Escherichia coli [1]) [µg/mL],MIC (Escherichia coli [2]) [µg/mL],MIC (Escherichia coli [3]) [µg/mL],MIC (Staphylococcus aureus [4]) [µg/mL],MIC (Klebsiella pneumoniae) [µg/mL],MIC (Acinetobacter baumannii [5]) [µg/mL],MIC (Pseudomonas aeruginosa [6]) [µg/mL],MIC (Enterobacter cloacae) [µg/mL],MIC (Escherichia coli [7]) [µg/mL],MIC (Staphylococcus aureus [8]) [µg/mL],MIC (Acinetobacter baumannii [9]) [µg/mL],MIC (Staphylococcus aureus [10]) [µg/mL],MIC (Pseudomonas aeruginosa [11]) [µg/mL],MIC (Escherichia coli [12]) [µg/mL],MIC (Pseudomonas aeruginosa [13]) [µg/mL],MIC (Staphylococcus aureus [14]) [µg/mL]
NCC[C@H](O)C(=O)N[C@@H]1C[C@H](N)[C@@H](O[C@H]2O[C@H](CO)[C@@H](O)[C@H](O)[C@H]2N)[C@H](O[C@@H]2O[C@H](CO)[C@@H](O[C@H]3O[C@@H](CN)[C@@H](O)[C@H](O)[C@H]3N)[C@H]2O)[C@H]1O,4,4,2,2,1,2,8,8,2,32,64,> 64,4,8,8,32
NCC[C@H](O)C(=O)N[C@@H]1C[C@H](N)[C@@H](O[C@H]2O[C@H](CN)[C@@H](O)[C@H](O)[C@H]2N)[C@H](O[C@@H]2O[C@H](CO)[C@@H](O)[C@H]2O)[C@H]1O,2,2,2,8,1,1,> 32,32,1,> 32,> 32,> 32,> 32,4,> 32,> 32
N[C@@H]1CC=C(CO)O[C@@H]1O[C@H]1[C@H](O[C@@H]2O[C@H](CO)[C@@H](O)[C@H]2O)[C@@H](O)[C@H](N)C[C@@H]1N,> 64,> 64,> 64,> 64,> 64,> 64,> 64,> 64,> 64,> 64,> 64,> 64,> 64,> 64,> 64,> 64
NCC1O[C@H](O[C@H]2[C@@H](O)[C@H](O[C@H]3[C@H](O)[C@@H](N)C[C@@H](N)[C@@H]3O[C@H]3O[C@H](CN)[C@@H](O)[C@H](O)[C@H]3N)O[C@@H]2CO)[C@H](N)[C@@H](O)[C@@H]1O (stereo not given in full),2,1,2,0.5,0.5,1,32,> 64,64,> 64,> 64,> 64,8,2,8,> 64
CN[C@@H](C)[C@@H]1CC[C@@H](N)[C@@H](O[C@H]2[C@H](O)[C@@H](O[C@H]3OC[C@](C)(O)[C@H](NC)[C@H]3O)[C@H](N)C[C@@H]2N)O1,16,> 64,0.5,0.5,0.25,2,0.5,32,0.25,0.5,> 64,0.5,2,64,32,> 64
NCC[C@H](O)C(=O)N[C@@H]1C[C@H](N)[C@@H](O[C@H]2O[C@H](CN)[C@@H](O)[C@H](O)[C@H]2O)[C@H](O)[C@H]1O[C@H]1O[C@H](CO)[C@@H](O)[C@H](N)[C@H]1O [AMIKACIN],2,> 64,2,2,0.5,2,2,64,0.5,8,> 64,64,32,4,4,64
NC[C@@H]1O[C@H](O[C@H]2[C@@H](O)[C@H](O[C@@H]3[C@@H](O)[C@H](N)C[C@H](N)[C@H]3O[C@H]3O[C@H](CO)[C@@H](O)[C@H](O)[C@H]3N)O[C@@H]2CO)[C@H](N)[C@@H](O)[C@@H]1O [PAROMOMYCIN],8,4,4,2,2,4,> 64,> 64,> 64,> 64,> 64,> 64,> 64,4,> 64,> 64
CN[C@@H]1[C@@H](O)[C@@H](O[C@@H]2[C@@H](O)[C@H](O[C@H]3OC(CN)=CC[C@H]3N)[C@@H](N)C[C@H]2N)OC[C@]1(C)O [SISOMICIN],32,> 64,0.5,0.5,0.25,0.5,0.5,> 64,0.25,0.25,> 64,1,1,64,32,> 64

# Continued, values first:
MIC (Escherichia coli [1]) [µg/mL],MIC (Escherichia coli [2]) [µg/mL],MIC (Escherichia coli [3]) [µg/mL],MIC (Staphylococcus aureus [4]) [µg/mL],MIC (Klebsiella pneumoniae) [µg/mL],MIC (Acinetobacter baumannii [5]) [µg/mL],MIC (Pseudomonas aeruginosa [6]) [µg/mL],MIC (Enterobacter cloacae) [µg/mL],MIC (Escherichia coli [7]) [µg/mL],MIC (Staphylococcus aureus [8]) [µg/mL],MIC (Acinetobacter baumannii [9]) [µg/mL],MIC (Staphylococcus aureus [10]) [µg/mL],MIC (Pseudomonas aeruginosa [11]) [µg/mL],MIC (Escherichia coli [12]) [µg/mL],MIC (Pseudomonas aeruginosa [13]) [µg/mL],MIC (Staphylococcus aureus [14]) [µg/mL],SMILES
> 64,64,64,16,16,> 64,16,> 64,64,> 64,> 64,16,64,> 64,> 64,> 64,NCC1=CC[C@@H](N)[C@@H](O[C@H]2[C@H](O[C@@H]3O[C@H](CO)[C@@H](O)[C@H]3O)[C@@H](O)[C@H](N)C[C@@H]2N)O1
8,8,8,8,4,4,4,> 64,4,16,8,8,8,8,16,16,NCC[C@H](O)C(=O)N[C@@H]1C[C@H](N)[C@@H](O[C@H]2OC(CN)=CC[C@H]2N)[C@H](O[C@@H]2O[C@H](CO)[C@@H](O)[C@H]2O)[C@H]1O
8,16,8,1,2,4,2,> 64,> 64,16,> 64,2,4,16,> 64,> 64,CNCC1=CC[C@H](N)[C@H](O[C@H]2[C@H](O[C@@H]3O[C@H](CO)[C@@H](O[C@@H]4O[C@H](CN)[C@H](O)[C@@H](O)[C@@H]4N)[C@H]3O)[C@@H](O)[C@H](N)C[C@@H]2N)O1
1,1,0.5,0.5,0.5,0.5,0.25,8,0.25,1,1,1,0.5,4,0.5,2,NCC[C@H](O)C(=O)N[C@@H]1C[C@H](N)[C@@H](O[C@H]2OC(CN)=CC[C@H]2N)[C@H](O[C@@H]2O[C@H](CO)[C@@H](O[C@@H]3O[C@H](CN)[C@H](O)[C@@H](O)[C@@H]3N)[C@H]2O)[C@H]1O
> 64,> 64,> 64,8,> 64,> 64,> 64,> 64,> 64,> 64,> 64,16,> 64,> 64,> 64,> 64,NC[C@H]1O[C@@H](O[C@H]2[C@@H](O)[C@H](O[C@@H]3[C@@H](O)[C@H](N)C[C@H](N)[C@H]3O[C@@H]3OC(CO)=CC[C@@H]3N)O[C@@H]2CO)[C@@H](N)[C@H](O)[C@H]1O (stereo in doubt)
8,2,2,1,0.5,1,0.5,> 64,> 64,16,> 64,1,1,2,> 64,64,NCC1=CC[C@H](N)[C@H](O[C@H]2[C@H](O[C@@H]3O[C@H](CO)[C@@H](O[C@@H]4O[C@H](CN)[C@H](O)[C@@H](O)[C@@H]4N)[C@H]3O)[C@@H](O)[C@H](N)C[C@@H]2N)O1 (stereo in doubt)
> 64,8,8,16,2,8,> 64,> 64,> 64,> 64,> 64,> 64,> 64,8,> 64,> 64,NC[C@H]1O[C@H](O[C@H]2[C@H](O[C@@H]3O[C@H](CO)[C@@H](O)[C@H]3O)[C@@H](O)[C@H](N)C[C@@H]2N)[C@H](N)[C@@H](O)[C@@H]1O [RIBOSTAMYCIN]
